Measured values reported in patent US20240358668A1, “METHODS AND CO[…] AM[…] CARD[…] USING (R)-2-AMINO-3-PH[…]” (AXSOME THERAPEUTICS, INC., priority 2021, published 2024).

System: participants with narcolepsy or OSA
Test: 1-year OLE study: blood pressure, parent study baseline to OLE week 40
Assay type: in vivo, human
Description: A 1-year open-label extension (OLE) study was performed with 374 participants to examined whether clinically significant weight loss (≥5%) in this population had favorable effects on biomarkers of cardiovascular risk compared to no such weight loss. The study measured changes in weight and BP (parent study baseline to OLE week 40) and clinical laboratory assessments (OLE baseline to week 40) in participants with narcolepsy (n=124) or OSA (n=250) who received solriamfetol at doses of 75, 150, or 300 mg/d.
We evaluated changes in weight and BP (parent study baseline to OLE week 40) and clinical laboratory assessments (OLE baseline to week 40) in participants with narcolepsy (n=124) or OSA (n=250) from the OLE study.

[1] = Weight loss <5% at Week 40, all doses, listed as solriamfetol
[2] = Weight loss ≥5% at Week 40, 75 mg/d
[3] = Weight loss ≥5% at Week 40, 150 mg/d
[4] = Weight loss ≥5% at Week 40, 300 mg/d
[5] = Weight loss ≥5% at Week 40, all doses
[6] = Weight loss ≥5% at Week 40, all doses, listed as Solri
[7] = Weight loss ≥5% at Week 40, all doses, listed as solriamfetol

NC(=O)OC[C@H](N)Cc1ccccc1 [Solriamfetol, (R)-2-amino-3-phenylpropyl carbamate] was tested, and the “SBP Change - Wk 40, Mean (SD)” value (Weight loss <5% at Week 40, all doses, listed as Solri) was 0.65 (12.5) mmHg, the “DBP Change - Wk 40, Mean (SD)” value [1] was 1.2±8.7 mmHg and the “SBP Change - Wk 40, Mean (SD)” value [1] was 0.65±12.5 mmHg. The “DBP Change - Wk 40, Mean (SD)” value [2] was −3.8 mmHg, the “DBP Change - Wk 40, Median” value [2] was −3.8 mmHg and the “DBP maximum changes from baseline to week 40: Decrease ≥10%” value (shortened to “DBP maximum changes … Decrease ≥10%”) [2] was 0 n (%). The “DBP maximum changes from baseline to week 40: Decrease ≥20%” value (“DBP maximum changes … Decrease ≥20%” below) [2] was 0 n (%), the “DBP maximum changes from baseline to week 40: Decrease ≥30%” value (from here on “DBP maximum changes … Decrease ≥30%”) [2] was 0 n (%) and the “DBP maximum changes from baseline to week 40: Increase ≥10%” value (shortened to “DBP maximum changes … Increase ≥10%”) [2] was 0 n (%). For the same compound, the “DBP maximum changes from baseline to week 40: Increase ≥20%” value (“DBP maximum changes … Increase ≥20%” below) [2] was 0 n (%), the “DBP maximum changes from baseline to week 40: Increase ≥30%” value (from here on “DBP maximum changes … Increase ≥30%”) [2] was 0 n (%) and the “SBP Change - Wk 40, Mean (SD)” value [2] was −3.3 mmHg. For the same compound, the “SBP Change - Wk 40, Median” value [2] was −3.3 mmHg, the “SBP maximum changes from baseline to week 40: Decrease ≥10%” value (shortened to “SBP maximum changes … Decrease ≥10%”) [2] was 0 n (%) and the “SBP maximum changes from baseline to week 40: Decrease ≥20%” value (“SBP maximum changes … Decrease ≥20%” below) [2] was 0 n (%). For the same compound, the “SBP maximum changes from baseline to week 40: Decrease ≥30%” value (from here on “SBP maximum changes … Decrease ≥30%”) [2] was 0 n (%), the “SBP maximum changes from baseline to week 40: Increase ≥10%” value (shortened to “SBP maximum changes … Increase ≥10%”) [2] was 0 n (%) and the “SBP maximum changes from baseline to week 40: Increase ≥20%” value (“SBP maximum changes … Increase ≥20%” below) [2] was 0 n (%). For the same compound, the “SBP maximum changes from baseline to week 40: Increase ≥30%” value (from here on “SBP maximum changes … Increase ≥30%”) [2] was 0 n (%), the “DBP Change - Wk 40, Mean (SD)” value [3] was −1.9 (9.9) mmHg and the “DBP Change - Wk 40, Median” value [3] was 0.5 mmHg. The “DBP maximum changes … Decrease ≥10%” value [3] was 5 (22.7) n (%), the “DBP maximum changes … Decrease ≥20%” value [3] was 1 (4.5) n (%) and the “DBP maximum changes … Decrease ≥30%” value [3] was 0 n (%). For the same compound, the “DBP maximum changes … Increase ≥10%” value [3] was 3 (13.6) n (%), the “DBP maximum changes … Increase ≥20%” value [3] was 0 n (%) and the “DBP maximum changes … Increase ≥30%” value [3] was 0 n (%). For the same compound, the “SBP Change - Wk 40, Mean (SD)” value [3] was −4.5 (13.8) mmHg, the “SBP Change - Wk 40, Median” value [3] was −2.8 mmHg and the “SBP maximum changes … Decrease ≥10%” value [3] was 7 (31.8) n (%). For the same compound, the “SBP maximum changes … Decrease ≥20%” value [3] was 1 (4.5) n (%), the “SBP maximum changes … Decrease ≥30%” value [3] was 1 (4.5) n (%) and the “SBP maximum changes … Increase ≥10%” value [3] was 3 (13.6) n (%). The “SBP maximum changes … Increase ≥20%” value [3] was 1 (4.5) n (%), the “SBP maximum changes … Increase ≥30%” value [3] was 0 n (%) and the “DBP Change - Wk 40, Mean (SD)” value [4] was −0.8 (8.9) mmHg. For the same compound, the “DBP Change - Wk 40, Median” value [4] was −0.3 mmHg, the “DBP maximum changes … Decrease ≥10%” value [4] was 11 (15.1) n (%) and the “DBP maximum changes … Decrease ≥20%” value [4] was 3 (4.1) n (%). For the same compound, the “DBP maximum changes … Decrease ≥30%” value [4] was 0 n (%), the “DBP maximum changes … Increase ≥10%” value [4] was 8 (11.0) n (%) and the “DBP maximum changes … Increase ≥20%” value [4] was 0 n (%). For the same compound, the “DBP maximum changes … Increase ≥30%” value [4] was 0 n (%), the “SBP Change - Wk 40, Mean (SD)” value [4] was −2.0 (10.8) mmHg and the “SBP Change - Wk 40, Median” value [4] was −1.8 mmHg. The “SBP maximum changes … Decrease ≥10%” value [4] was 20 (27.4) n (%), the “SBP maximum changes … Decrease ≥20%” value [4] was 2 (2.7) n (%) and the “SBP maximum changes … Decrease ≥30%” value [4] was 0 n (%). The “SBP maximum changes … Increase ≥10%” value [4] was 13 (17.8) n (%), the “SBP maximum changes … Increase ≥20%” value [4] was 1 (1.4) n (%) and the “SBP maximum changes … Increase ≥30%” value [4] was 0 n (%). The “DBP Change - Wk 40, Median” value [5] was −0.3 mmHg, the “DBP maximum changes … Decrease ≥10%” value [5] was 16 (16.7) n (%) and the “DBP maximum changes … Decrease ≥20%” value [5] was 4 (4.2) n (%). The “DBP maximum changes … Decrease ≥30%” value [5] was 0 n (%), the “DBP maximum changes … Increase ≥10%” value [5] was 11 (11.5) n (%) and the “DBP maximum changes … Increase ≥20%” value [5] was 0 n (%). The “DBP maximum changes … Increase ≥30%” value [5] was 0 n (%), the “SBP Change - Wk 40, Median” value [5] was −2.8 mmHg and the “SBP maximum changes … Decrease ≥10%” value [5] was 27 (28.1) n (%). The “SBP maximum changes … Decrease ≥20%” value [5] was 3 (3.1) n (%), the “SBP maximum changes … Decrease ≥30%” value [5] was 1 (1.0) n (%) and the “SBP maximum changes … Increase ≥10%” value [5] was 16 (16.7) n (%). The “SBP maximum changes … Increase ≥20%” value [5] was 2 (2.1) n (%), the “SBP maximum changes … Increase ≥30%” value [5] was 0 n (%) and the “DBP Change - Wk 40, Mean (SD)” value [6] was −1.0 (9.0) mmHg. For the same compound, the “SBP Change - Wk 40, Mean (SD)” value [6] was −2.6 (11.4) mmHg, the “DBP Change - Wk 40, Mean (SD)” value [7] was −1.0±9.0 mmHg and the “SBP Change - Wk 40, Mean (SD)” value [7] was −2.6±11.4 mmHg.
